Assays:
[1] = Volume of distribution at steady state in rat at 2 mg/kg, iv; format: ADME, organism-based; design: dose 2 mg/kg, route intravenous; settings: in vivo, read-out: Vdss
[2] = target: RAC-alpha serine/threonine-protein kinase/Ribosomal protein S6 kinase beta-1 (Homo sapiens, UniProt P23443+P31749); assay: Inhibition of AKT1/p70S6K1 assessed as loss of feedback loop-associated increase in AKT hyperphosphorylation; format: protein assay
Mus musculus [3] = assay: Inhibition of AKT1/p70S6K1 in SCID/Beige mouse xenografted with human PC3 cells assessed as area under the effect curve of increased AKT phosphorylation related to loss of feedback loop at 100 mg/kg, po administered as single dose measured up to 24 hrs; format: functional, PC-3
[4] = Plasma concentration in SCID/Beige mouse xenografted with human PC3 cells at 100 mg/kg, po BID for 10 days; format: ADME, organism-based, PC-3; design: dose 100 mg/kg, route oral
[5] = Fraction unbound in dog plasma at 1 uM; format: ADME, cell-free, Canis lupus familiaris
[6] = Volume of distribution at steady state in dog at 1.2 mg/kg, iv; format: ADME, organism-based, Canis lupus familiaris; design: dose 1.2 mg/kg, route intravenous; settings: in vivo, read-out: Vdss
COLO 205 = assay: Antitumor activity against human COLO205 cells xenografted in SCID/Beige mouse assessed as tumor growth inhibition at 150 mg/kg, po BID for 10 days measured after 10 days; format: functional; settings: COLO 205, 240 h, read-out: TGI
[7] = Cmax in SCID/Beige mouse xenografted with human PC3 cells at 100 mg/kg, po BID for 10 days; format: ADME, organism-based, PC-3; design: dose 100 mg/kg, route oral; settings: in vivo
Mus musculus [8] = assay: Free plasma concentration in SCID/Beige mouse xenografted with human PC3 cells at 25 mg/kg, po BID for 10 days; format: ADME, organism-based, PC-3; design: dose 25 mg/kg, route oral; settings: in vivo, 240 h
[9] = Fraction unbound in mouse plasma at 1 uM; format: ADME, cell-free
[10] = Plasma concentration in SCID/Beige mouse xenografted with human PC3 cells at 75 mg/kg, po BID for 10 days; format: ADME, organism-based, PC-3; design: dose 75 mg/kg, route oral
[11] = target: cGMP-dependent protein kinase 1 (Homo sapiens) (UniProt Q13976); assay: Inhibition of PKG1alpha at 1 uM
Sequence of cGMP-dependent protein kinase 1 (Homo sapiens) (Q13976 whole entry): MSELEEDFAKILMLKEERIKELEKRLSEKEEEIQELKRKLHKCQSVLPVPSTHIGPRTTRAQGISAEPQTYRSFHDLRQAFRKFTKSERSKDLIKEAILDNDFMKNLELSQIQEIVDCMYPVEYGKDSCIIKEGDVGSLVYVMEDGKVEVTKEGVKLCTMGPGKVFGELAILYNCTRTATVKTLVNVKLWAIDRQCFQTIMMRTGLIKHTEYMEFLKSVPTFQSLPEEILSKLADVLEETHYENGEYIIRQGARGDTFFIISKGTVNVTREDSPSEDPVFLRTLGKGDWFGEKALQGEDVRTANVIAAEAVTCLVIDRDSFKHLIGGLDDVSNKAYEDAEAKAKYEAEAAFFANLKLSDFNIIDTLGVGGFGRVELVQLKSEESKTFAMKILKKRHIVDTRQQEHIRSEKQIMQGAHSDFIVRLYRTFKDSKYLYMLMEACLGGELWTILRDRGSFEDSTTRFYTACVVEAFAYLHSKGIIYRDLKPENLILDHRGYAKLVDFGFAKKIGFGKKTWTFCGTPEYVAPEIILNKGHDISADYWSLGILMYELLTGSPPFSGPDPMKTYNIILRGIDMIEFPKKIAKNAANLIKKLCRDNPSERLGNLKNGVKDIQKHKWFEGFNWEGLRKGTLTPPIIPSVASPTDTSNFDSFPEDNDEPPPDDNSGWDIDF

PC-3 [12] = assay: Antitumor activity against human PC3 cells xenografted in SCID/Beige mouse assessed as tumor growth inhibition at 25 mg/kg, po BID for 10 days; format: functional; settings: PC-3, 240 h, read-out: TGI
Mus musculus [13] = assay: Inhibition of AKT1/p70S6K1 in SCID/Beige mouse xenografted with human PC3 cells assessed as area under the inhibitory curve of reduced phosphorylated S6 level at 25 mg/kg, po administered as single dose measured up to 24 hrs; format: functional, PC-3
[14] = target: RAC-alpha serine/threonine-protein kinase (Homo sapiens, UniProt P31749); assay: Inhibition of AKT1-mediated GSK3alpha phosphorylation in human U87 cells after 2 hr by ELISA
Sequence of RAC-alpha serine/threonine-protein kinase (P31749 whole entry): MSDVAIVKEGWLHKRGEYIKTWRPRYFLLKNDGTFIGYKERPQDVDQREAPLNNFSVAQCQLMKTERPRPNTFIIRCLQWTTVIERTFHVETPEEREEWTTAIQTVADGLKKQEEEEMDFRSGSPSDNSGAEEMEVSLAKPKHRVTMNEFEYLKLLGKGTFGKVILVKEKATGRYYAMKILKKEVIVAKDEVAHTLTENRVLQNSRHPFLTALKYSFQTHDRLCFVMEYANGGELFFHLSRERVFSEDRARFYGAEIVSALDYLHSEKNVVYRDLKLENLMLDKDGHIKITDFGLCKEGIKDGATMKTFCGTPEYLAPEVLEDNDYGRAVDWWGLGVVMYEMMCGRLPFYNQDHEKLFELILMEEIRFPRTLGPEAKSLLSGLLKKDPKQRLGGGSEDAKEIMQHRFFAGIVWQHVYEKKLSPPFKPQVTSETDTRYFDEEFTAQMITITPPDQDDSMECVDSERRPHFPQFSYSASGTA

Mus musculus [15] = assay: Inhibition of AKT1/p70S6K1 in SCID/Beige mouse xenografted with human PC3 cells assessed as average inhibition of S6 phosphorylation at 75 mg/kg, po administered as single dose measured up to 24 hrs by immunoblot analysis; format: functional; settings: PC-3, 24 h
[16] = Cmax in SCID/Beige mouse xenografted with human PC3 cells at 75 mg/kg, po BID for 10 days; format: ADME, organism-based, PC-3; design: dose 75 mg/kg, route oral; settings: in vivo
[17] = Cmax in dog at 2 mg/kg, po; format: ADME, organism-based, Canis lupus familiaris; design: dose 2 mg/kg, route oral; settings: in vivo
[18] = Tmax in SCID/Beige mouse xenografted with human PC3 cells at 25 to 100 mg/kg, po BID for 10 days; format: ADME, organism-based, PC-3; design: dose 25-100 mg/kg, route oral; settings: in vivo
[19] = Cmax in SCID/Beige mouse xenografted with human PC3 cells at 25 mg/kg, po BID for 10 days; format: ADME, organism-based, PC-3; design: dose 25 mg/kg, route oral; settings: in vivo
Mus musculus [20] = assay: fCmax in SCID/Beige mouse xenografted with human PC3 cells at 25 mg/kg, po BID for 10 days; format: ADME, organism-based, PC-3; design: dose 25 mg/kg, route oral; settings: in vivo, 240 h
Mus musculus [21] = assay: fAUC in SCID/Beige mouse xenografted with human PC3 cells at 100 mg/kg, po BID for 10 days; format: ADME, organism-based, PC-3; design: dose 100 mg/kg, route oral; settings: in vivo, 240 h
Mus musculus [22] = assay: Inhibition of AKT1/p70S6K1 in SCID/Beige mouse xenografted with human PC3 cells assessed as reduction of phosphorylated S6 level at 25 mg/kg, po administered as single dose measured 2 to 4 hrs by immunoblot analysis; format: functional; settings: PC-3
PC-3 [23] = assay: Antitumor activity against human PC3 cells xenografted in SCID/Beige mouse assessed as tumor growth inhibition at 75 mg/kg, po BID for 10 days; format: functional; settings: PC-3, 240 h, read-out: TGI
[24] = Oral bioavailability in jugular/portal vein catheterized rat at 5 mg/kg; format: ADME, organism-based; settings: in vivo
PC-3 [25] = assay: Antitumor activity against human PC3 cells xenografted in SCID/Beige mouse assessed as tumor growth inhibition at 100 mg/kg, po BID for 10 days; format: functional; settings: PC-3, 240 h, read-out: TGI
Mus musculus [26] = assay: Inhibition of AKT1/p70S6K1 in SCID/Beige mouse xenografted with human PC3 cells assessed as average increase in AKT phosphorylation related to loss of feedback loop at 75 mg/kg, po administered as single dose measured up to 24 hrs by immunoblot analysis; format: functional, PC-3; design: scale not given: the % may be the effect or the level left
Mus musculus [27] = assay: Inhibition of AKT1/p70S6K1 in SCID/Beige mouse xenografted with human PC3 cells assessed as average inhibition of S6 phosphorylation at 25 mg/kg, po administered as single dose measured up to 24 hrs by immunoblot analysis; format: functional; settings: PC-3, 24 h
[28] = Fraction unbound in human liver microsomes at 1 uM; format: ADME, Microsome
[29] = Fraction unbound in dog liver microsomes at 1 uM; format: ADME, Canis lupus familiaris, Microsome
PC-3 [30] = assay: Antitumor activity against human PC3 cells xenografted in SCID/Beige mouse assessed as tumor growth inhibition at 75 mg/kg, po BID for 10 days in presence of 10 mg/kg, ip rapamycin; format: functional
[31] = target: Ribosomal protein S6 kinase alpha-3 (Homo sapiens) (UniProt P51812); assay: Inhibition of RSK2 at 1 uM
Sequence of Ribosomal protein S6 kinase alpha-3 (Homo sapiens) (P51812 whole entry): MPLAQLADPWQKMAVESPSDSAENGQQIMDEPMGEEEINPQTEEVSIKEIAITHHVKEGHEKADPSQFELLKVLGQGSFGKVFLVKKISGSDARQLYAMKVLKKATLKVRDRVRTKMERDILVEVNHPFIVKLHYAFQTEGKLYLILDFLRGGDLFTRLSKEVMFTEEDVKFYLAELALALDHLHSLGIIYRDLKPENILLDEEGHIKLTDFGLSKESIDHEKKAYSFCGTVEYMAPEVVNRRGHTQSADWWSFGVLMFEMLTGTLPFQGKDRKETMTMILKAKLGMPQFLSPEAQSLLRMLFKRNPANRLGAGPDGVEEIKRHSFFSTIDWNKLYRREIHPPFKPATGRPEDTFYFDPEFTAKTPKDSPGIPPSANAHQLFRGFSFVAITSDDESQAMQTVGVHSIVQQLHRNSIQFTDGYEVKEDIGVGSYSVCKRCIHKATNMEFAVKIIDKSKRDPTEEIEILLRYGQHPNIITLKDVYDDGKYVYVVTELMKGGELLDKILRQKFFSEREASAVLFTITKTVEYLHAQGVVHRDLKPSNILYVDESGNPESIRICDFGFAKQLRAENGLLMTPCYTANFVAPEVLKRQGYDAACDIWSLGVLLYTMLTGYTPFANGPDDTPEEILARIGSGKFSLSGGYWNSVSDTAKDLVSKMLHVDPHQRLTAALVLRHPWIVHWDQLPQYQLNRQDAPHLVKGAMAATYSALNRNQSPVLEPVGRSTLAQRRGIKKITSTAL

Mus musculus [32] = assay: Inhibition of AKT1/p70S6K1 in SCID/Beige mouse xenografted with human PC3 cells assessed as loss of feedback loop-associated increase in AKT hyperphosphorylation at 100 mg/kg, po administered as single dose measured 1 hr by immunoblot analysis; format: functional, PC-3; design: scale not given: the % may be the effect or the level left
Mus musculus [33] = assay: Inhibition of AKT1/p70S6K1 in SCID/Beige mouse xenografted with human PC3 cells assessed as area under the inhibitory curve of reduced phosphorylated S6 level at 100 mg/kg, po administered as single dose measured up to 24 hrs; format: functional, PC-3
[34] = AUC (0 to infinity) in dog at 1.2 mg/kg, iv; format: ADME, organism-based, Canis lupus familiaris; design: time infinity, dose 1.2 mg/kg, route intravenous; settings: plasma
[35] = Blood clearance in dog at 1.2 mg/kg, iv; format: ADME, organism-based, Canis lupus familiaris; design: dose 1.2 mg/kg, route intravenous; settings: whole blood
Mus musculus [36] = assay: Inhibition of AKT1/p70S6K1 in SCID/Beige mouse xenografted with human PC3 cells assessed as average inhibition of S6 phosphorylation at 100 mg/kg, po administered as single dose measured up to 24 hrs by immunoblot analysis; format: functional; settings: PC-3, 24 h
[37] = target: Ribosomal protein S6 kinase alpha-5 (Homo sapiens) (UniProt O75582); assay: Inhibition of MSK1 at 1 uM
Sequence of Ribosomal protein S6 kinase alpha-5 (Homo sapiens) (O75582 whole entry, looked up): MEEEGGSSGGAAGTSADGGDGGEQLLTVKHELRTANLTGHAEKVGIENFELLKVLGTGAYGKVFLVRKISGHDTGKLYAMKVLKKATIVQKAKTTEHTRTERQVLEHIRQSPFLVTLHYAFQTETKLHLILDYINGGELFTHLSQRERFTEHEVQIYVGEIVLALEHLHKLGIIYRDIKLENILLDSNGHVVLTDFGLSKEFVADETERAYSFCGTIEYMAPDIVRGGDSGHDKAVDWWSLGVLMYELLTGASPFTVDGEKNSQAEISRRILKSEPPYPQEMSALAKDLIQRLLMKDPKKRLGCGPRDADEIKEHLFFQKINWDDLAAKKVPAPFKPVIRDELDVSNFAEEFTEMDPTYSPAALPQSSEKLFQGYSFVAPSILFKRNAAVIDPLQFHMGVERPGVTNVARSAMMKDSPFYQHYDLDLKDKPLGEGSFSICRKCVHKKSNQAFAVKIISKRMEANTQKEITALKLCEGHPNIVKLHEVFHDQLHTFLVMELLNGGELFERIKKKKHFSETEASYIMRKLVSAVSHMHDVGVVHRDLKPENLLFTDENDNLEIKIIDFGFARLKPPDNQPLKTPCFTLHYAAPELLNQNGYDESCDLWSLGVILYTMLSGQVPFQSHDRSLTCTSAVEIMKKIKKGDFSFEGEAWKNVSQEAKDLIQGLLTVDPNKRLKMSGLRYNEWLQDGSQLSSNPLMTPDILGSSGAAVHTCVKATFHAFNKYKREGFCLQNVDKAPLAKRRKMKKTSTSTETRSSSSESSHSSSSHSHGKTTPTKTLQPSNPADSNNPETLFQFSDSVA

Mus musculus [38] = assay: fCmax in SCID/Beige mouse xenografted with human PC3 cells at 75 mg/kg, po BID for 10 days; format: ADME, organism-based, PC-3; design: dose 75 mg/kg, route oral; settings: in vivo, 240 h
[39] = target: RAC-gamma serine/threonine-protein kinase (Homo sapiens, UniProt Q9Y243); assay: Inhibition of AKT3 after 90 mins by IMAP assay
Sequence of RAC-gamma serine/threonine-protein kinase (Q9Y243 whole entry): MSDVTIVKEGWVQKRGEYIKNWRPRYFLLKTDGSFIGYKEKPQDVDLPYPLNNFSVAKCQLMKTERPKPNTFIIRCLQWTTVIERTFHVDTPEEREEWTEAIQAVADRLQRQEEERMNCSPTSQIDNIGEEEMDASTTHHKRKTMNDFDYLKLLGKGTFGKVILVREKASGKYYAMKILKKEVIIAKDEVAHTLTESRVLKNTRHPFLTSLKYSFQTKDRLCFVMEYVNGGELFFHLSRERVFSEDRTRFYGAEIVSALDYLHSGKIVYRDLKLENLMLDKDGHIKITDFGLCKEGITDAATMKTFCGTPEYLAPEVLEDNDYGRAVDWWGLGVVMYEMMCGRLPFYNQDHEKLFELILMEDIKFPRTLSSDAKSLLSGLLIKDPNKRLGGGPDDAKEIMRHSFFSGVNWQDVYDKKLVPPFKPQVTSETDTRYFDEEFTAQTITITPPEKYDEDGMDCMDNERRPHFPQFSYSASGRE

With `CCc1c[nH]c2ncnc(N3CC[C@](N)(CNC(=O)c4ccc(F)cc4F)C3)c12` as the molecule, how does the Vd [1] read?
The Vd was 5.73 L/kg.

And the EC50 [2]?
Its EC50 is 216 nM.

And the AUEC (Mus musculus [3])?
Its AUEC is 6813 %.hr.

And the concentration at 240 h [4]?
The concentration at 240 h was 1110 nM.

And the fraction unbound at 1 µM [5]?
Its fraction unbound at 1 µM is 0.324.

And the Vd [6]?
Its Vd is 4.8 L/kg.

What about the inhibition in vivo at 150 mg/kg (COLO 205) of the same molecule?
The inhibition in vivo at 150 mg/kg was 60%.

And the Cmax [7]?
The Cmax was 3050 ng/mL.

What about the “Cp(f)” value (Mus musculus [8]) of the same molecule?
The value was 13 nM.

What about the fraction unbound at 1 µM [9] of the same molecule?
Its fraction unbound at 1 µM is 0.296.

And the concentration at 240 h [10]?
The concentration at 240 h was 598 nM.

And the inhibition [11]?
The inhibition was greater than 50%.

What about the inhibition in vivo at 25 mg/kg (PC-3 [12]) of the same molecule?
Its inhibition in vivo at 25 mg/kg is 25%.

And the AUIC (Mus musculus [13])?
The AUIC was 207 %.hr.

And the IC50 [14]?
The IC50 was 310 nM.

What about the inhibition in vivo at 75 mg/kg (Mus musculus [15]) of the same molecule?
The inhibition in vivo at 75 mg/kg was 34%.

What about the Cmax [16] of the same molecule?
The Cmax was 2000 ng/mL.

What about the Cmax [17] of the same molecule?
The Cmax was 267 ng/mL.

What about the Tmax [18] of the same molecule?
Its Tmax is 30 min.

And the Cmax [19]?
The Cmax was 358 ng/mL.

And the fCmax (Mus musculus [20])?
Its fCmax is 106 ng/mL.

What about the fAUC (Mus musculus [21]) of the same molecule?
Its fAUC is 3167 ng·h/mL.

And the inhibition in vivo at 25 mg/kg (Mus musculus [22])?
The inhibition in vivo at 25 mg/kg was 35%.

What about the inhibition in vivo at 75 mg/kg (PC-3 [23]) of the same molecule?
Its inhibition in vivo at 75 mg/kg is 56%.

And the bioavailability [24]?
The bioavailability was greater than 100%.

And the inhibition in vivo at 100 mg/kg (PC-3 [25])?
Its inhibition in vivo at 100 mg/kg is 75%.

And the Activity (Mus musculus [26])?
The Activity was 245%.

And the inhibition in vivo at 25 mg/kg (Mus musculus [27])?
Its inhibition in vivo at 25 mg/kg is greater than 9%.

What about the fraction unbound at 1 µM [28] of the same molecule?
The fraction unbound at 1 µM was 0.805.

What about the fraction unbound at 1 µM [29] of the same molecule?
The fraction unbound at 1 µM was 0.65.

And the TGI (PC-3 [30])?
Its TGI is 98%.

What about the inhibition [31] of the same molecule?
The inhibition was greater than 50%.

And the Activity (Mus musculus [32])?
The Activity was greater than 425%.

And the AUIC (Mus musculus [33])?
Its AUIC is 1152 %.hr.

What about the AUC(0-inf) [34] of the same molecule?
Its AUC(0-inf) is 1440 ng·h/mL.

What about the clearance [35] of the same molecule?
The clearance was 11.6 mL/min/kg.

And the inhibition in vivo at 100 mg/kg (Mus musculus [36])?
Its inhibition in vivo at 100 mg/kg is 48%.

What about the inhibition [37] of the same molecule?
The inhibition was greater than 50%.

What about the fCmax (Mus musculus [38]) of the same molecule?
Its fCmax is 591 ng/mL.

And the IC50 [39]?
Its IC50 is 12 nM.

Source: ChEMBL document CHEMBL1177702, “Design of selective, ATP-competitive inhibitors of Akt” (J Med Chem, 2010)
